For 65 compounds, viability results are on record in PMC12040169 (PLOS Biology, 2025).

As usually defined, the viability is a read-out of living cells in per cent, often relative to untreated cells.

The nature of this series: in vitro. To be noted: human, hela cells, % viability.

Take `O=C(NCc1sccc1Cl)Nc1cccc(Cl)c1` [CBK057110]: the viability at 28.5 h, 10 µM came to 92.4%.

In the case of `Cn1nc(NC(=O)COCC(=O)O)c2ccccc21` [CBK057114], the viability at 28.5 h, 10 µM was 98.8%.

On to `Cn1nc(NC(=O)CC(C)(C)CC(=O)O)c2c(F)cccc21` [CBK057122], for which the viability at 28.5 h, 10 µM is 86.3%.

In the case of `Cc1nc(C(F)(F)F)ccc1C(=O)N1C=CC(C(F)(F)F)=NCC1` [CBK057187], the viability at 28.5 h, 10 µM turned out to be 113%.

As to `CSc1cccc(NC(=O)NCCN2CCNC2=O)c1` [CBK057191], the viability at 28.5 h, 10 µM is 103%.

Consider `O=S(=O)(Nc1ccc(C(F)(F)F)cc1Cl)c1cc(Br)c(Cl)s1` [CBK057196], for which the viability at 28.5 h, 10 µM is 78.9%.

For the compound `O=C(NCC(O)c1ccccc1)Nc1ccccc1` (centres unmarked) [CBK057227], the viability at 28.5 h, 10 µM was determined as 95.2%.

As for `Cc1cc(C(=O)Nc2ccccc2N2CCOCC2)c(C)o1` [CBK057243], the viability at 28.5 h, 10 µM is 111%.

Consider `Cc1oc(C(C)(C)C)cc1C(=O)Nc1ccc(C(F)(F)F)cc1` [CBK057251], for which the viability at 28.5 h, 10 µM was determined as 87%.

For `O=C(O)CSCC(=O)N1CCN(c2ccc(F)cc2)CC1` [CBK057269], the viability at 28.5 h, 10 µM came out at 98%.

Regarding `CCOc1ccccc1NC(=O)Nc1cccc(S(N)(=O)=O)c1` [CBK057282], the viability at 28.5 h, 10 µM came to 91.3%.

Take `COc1cc2c(cc1OC)C(C)N(S(=O)(=O)c1cn(C)cn1)CC2` (centres unmarked) [CBK057314]: the viability at 28.5 h, 10 µM is 112%.

Consider `O=C(O)C1CCN(C(=O)c2ccc3nsnc3c2)CC1` [CBK057344], for which the viability at 28.5 h, 10 µM was 99.8%.

As for `Cc1cc(C(=O)N(C)C2CCCCC2)no1` [CBK057375], the viability at 28.5 h, 10 µM was 113%.

`O=C(O)CCC(=O)NCC(=O)c1ccc(F)cc1` [CBK057384]: the viability at 28.5 h, 10 µM is 76.6%.

For the compound `O=S(=O)(NCC1COc2ccccc2O1)c1cc(Cl)sc1Cl` (centres unmarked) [CBK057394], the viability at 28.5 h, 10 µM amounted to 85.4%.

With `CC(C)c1ccc(NC(=O)C2=NNC(=O)CC2)cc1` [CBK057421], the viability at 28.5 h, 10 µM is 96.5%.

Consider `O=S(=O)(NCCc1c[nH]c2ccccc12)c1cccc2nsnc12` [CBK057456], for which the viability at 28.5 h, 10 µM amounted to 83.4%.

`CCOc1ccccc1NC(=O)NCCSCc1ccco1` [CBK057501]: the viability at 28.5 h, 10 µM was found to be 94.5%.

`O=C(Nc1ccc2nonc2c1)N1CCOCC1` [CBK057530]: the viability at 28.5 h, 10 µM is 90.8%.

As to `Cn1ccnc1SCC(=O)Nc1ccc(I)cc1` [CBK057541], the viability at 28.5 h, 10 µM stood at 85.3%.

As to `O=C(O)CSCC(=O)Nc1ccc(Cl)cn1` [CBK057543], the viability at 28.5 h, 10 µM came out at 86.5%.

Regarding `CC(C)SCC(=O)Nc1ccc(Br)cc1` [CBK057618], the viability at 28.5 h, 10 µM amounted to 102%.

On to `COc1ccc(NC(=O)c2cc(C(F)(F)F)cc(C(F)(F)F)c2)cn1` [CBK057634], for which the viability at 28.5 h, 10 µM worked out at 85.1%.

Take `COC(=O)CNC(=O)c1nc(SC)ncc1Cl` [CBK057651]: the viability at 28.5 h, 10 µM was 107%.

Take `CCOC(=O)NC(NCc1ccco1)(C(F)(F)F)C(F)(F)F` [CBK057654]: the viability at 28.5 h, 10 µM came to 102%.

`CCCCc1ccc(NC(=O)CSc2nnc(N)s2)c(C)c1` [CBK057659]: the viability at 28.5 h, 10 µM turned out to be 91.9%.

As for `O=C(Nc1ccccc1)c1cc2sccc2s1` [CBK057696], the viability at 28.5 h, 10 µM is 87.9%.

Take `CCOC(=O)CNc1ccc(C(F)(F)F)cc1` [CBK057732]: the viability at 28.5 h, 10 µM was 94.4%.

On to `CC(=O)c1ccccc1NC(=O)CSCC(=O)O` [CBK057752], for which the viability at 28.5 h, 10 µM was found to be 92.2%.

On to `CC(=O)c1ccccc1NC(C#N)c1ccccc1` (centres unmarked) [CBK057758], for which the viability at 28.5 h, 10 µM turned out to be 99.6%.

Consider `O=C(Nc1cc(Cl)cc(Cl)c1)c1csnn1` [CBK057759], for which the viability at 28.5 h, 10 µM amounted to 88.1%.

On to `CCOC(=O)c1csc(COc2ccccc2Cl)n1` [CBK057782], for which the viability at 28.5 h, 10 µM was 113%.

As to `O=C(Nc1ccno1)Nc1ccc(Cl)cc1Cl` [CBK057809], the viability at 28.5 h, 10 µM amounted to 94.6%.

For the compound `CSc1nnc(SCC(=O)N2CCC(C(F)(F)F)CC2)s1` [CBK057829], the viability at 28.5 h, 10 µM amounted to 111%.

For `CCOC(=O)c1sc(NC(=O)C2CCCCC2)nc1C` [CBK057893], the viability at 28.5 h, 10 µM was 92.3%.

Take `CCOc1ccccc1NC(=O)c1cc(CC(C)C)oc1C` [CBK057904]: the viability at 28.5 h, 10 µM turned out to be 101%.

For `O=C(CC1SC(=O)NC1=O)Nc1ccccc1O` (centres unmarked) [CBK057932], the viability at 28.5 h, 10 µM turned out to be 98.5%.

Turning to `CCc1cc2c(NCc3ccccc3)ncnc2s1` [CBK057944], the viability at 28.5 h, 10 µM stood at 91.4%.

Turning to `CC1CC(Nc2ccccc2)c2ccccc2N1` (centres unmarked) [CBK057947], the viability at 28.5 h, 10 µM turned out to be 86.6%.

As to `CCC(C)c1ccc(NC(=O)c2cccnc2)cc1` (centres unmarked) [CBK057967], the viability at 28.5 h, 10 µM turned out to be 85.9%.

On to `COC(=O)C(CCSC)NC(=O)c1cccs1` (centres unmarked) [CBK057972], for which the viability at 28.5 h, 10 µM came to 94%.

Turning to `CCCC(C)C(=O)Nc1ccncc1` (centres unmarked) [CBK057984], the viability at 28.5 h, 10 µM worked out at 87.1%.

On to `O=C(O)CC(NC(=O)c1ccco1)c1ccc(F)cc1` (centres unmarked) [CBK057988], for which the viability at 28.5 h, 10 µM was determined as 107%.

For the compound `NS(=O)(=O)c1cnccc1NCCc1ccccc1` [CBK058003], the viability at 28.5 h, 10 µM was 103%.

With `O=C(Nc1nccs1)c1cccc(Cl)c1Cl` [CBK058011], the viability at 28.5 h, 10 µM is 112%.

`Cc1nnc(N/N=C/c2ccc(OC3CCCC3)cc2)nc1O` [CBK058025]: the viability at 28.5 h, 10 µM came out at 104%.

Consider `N=C(N)CCCOc1ccccc1-c1ccccc1` [CBK058057], for which the viability at 28.5 h, 10 µM was determined as 100%.

As for `Nc1nc(-c2ccccc2)c(C(=O)Nc2ccccc2)s1` [CBK058068], the viability at 28.5 h, 10 µM was 95.2%.

`CCOC(=O)CNC(=O)c1cc2ccccc2c(=O)o1` [CBK058083]: the viability at 28.5 h, 10 µM was determined as 97.9%.

Consider `O=C(NC1CCCC1)c1ccc(=O)[nH]c1` [CBK058093], for which the viability at 28.5 h, 10 µM came out at 104%.

As for `COc1ccc(-c2nc(NC3CCCCC3)c3ccccc3n2)cc1` [CBK058109], the viability at 28.5 h, 10 µM came out at 95.6%.

As to `CC1CCCCC1NC(=O)CSc1cccc2cccnc12` (centres unmarked) [CBK058143], the viability at 28.5 h, 10 µM stood at 96.9%.

Turning to `CCCCCC(=O)Nc1c(C)cc(Br)cc1C` [CBK058159], the viability at 28.5 h, 10 µM came out at 116%.

For `COc1ccc(C(=O)NCC2(c3ccccc3)CCCC2)c(OC)c1` [CBK058164], the viability at 28.5 h, 10 µM amounted to 113%.

As to `Clc1ccc(-c2csc(NCc3ccco3)n2)cc1` [CBK058168], the viability at 28.5 h, 10 µM came to 109%.

As for `CC(C)=C(NC(=O)c1ccccc1)C(=O)Nc1cccc(C(=O)O)c1` [CBK058180], the viability at 28.5 h, 10 µM turned out to be 105%.

As to `O=C(CSCC(=O)Nc1ccc2ccccc2c1)NCC1CCCO1` (centres unmarked) [CBK058183], the viability at 28.5 h, 10 µM was determined as 89.6%.

As for `Cc1ccc(C(C)C)c(OCC(=O)n2nc(C)cc2C)c1` [CBK058196], the viability at 28.5 h, 10 µM came to 87.9%.

As for `O=c1cc(C(F)(F)F)c2ccc(OCc3ccc(Cl)cc3)cc2o1` [CBK058200], the viability at 28.5 h, 10 µM was 93%.

As for `O=C(CSc1ncccn1)Nc1cccc(Cl)c1` [CBK058217], the viability at 28.5 h, 10 µM came out at 87.6%.

For `Cc1ccccc1C(=O)Nc1ccc(F)c(F)c1` [CBK058249], the viability at 28.5 h, 10 µM was determined as 96.1%.

With `Cc1ccc(NC(=O)c2ccncc2)c(Br)c1` [CBK058282], the viability at 28.5 h, 10 µM is 94.1%.

Regarding `O=C(Nc1ccc2c(c1)OCO2)c1cccc(I)c1` [CBK058308], the viability at 28.5 h, 10 µM is 85.7%.

As to `CCN(CC)S(=O)(=O)c1cc(C(=O)NC2CCCCC2)ccc1Br` [CBK058354], the viability at 28.5 h, 10 µM was 96.3%.
